Data as given in patent US11179414B2, “Method for producing protease degradation composition” (LAIMU CORPORATION, priority 2018, dated 2021).

System: adult-derived normal human fibroblasts
Test: Collagen production promoting test (human collagen type 1 ELISA of supernatant)
Format: cell-based
Conditions: final concentration 1 mg/mL; culture for 3 days; mean of 5 tests
Protocol: As the cells for test, adult-derived normal human fibroblasts bought from Kurabo Industries Ltd. were used.
As a cell growth medium, DMEM added with 10% FBS and […] mixed solution was used; and as a test medium, DMEM added with 1% FBS and 1% penicillin-streptomycin mixed solution was used.
Adult-derived normal human fibroblasts were sown and initiated in a cell growth medium inside a cell culture flask (Corning's T-75), and cultured in a moist environment at 37° C. in the presence of 5% CO2. During this, the medium was replaced every other day, and at the time when the culture reached 80% confluent growth, the cells were collected and used in the following tests.
The cultured fibroblasts were sown in a 96-well plate to be 5×10^3 cells/0.1 mL/well, and cultured therein at 37° C. in the presence of 5% CO2 for 1 day. Subsequently, the cell growth medium in each well was replaced with each test medium added with the composition 1 or L-ascorbic acid 2-glucoside, or with a test medium not added with them (control medium). […] Subsequently, the cells were cultured at 37° C. in the presence of 5% CO2 for 3 days, then the supernatant of the test medium in each well was collected, and using a human collagen-type 1 ELISA kit, the I-type collagen concentration in the supernatant was measured. […]

## O=C1O[C@H]([C@@H](O)CO)C(O)=C1O[C@H]1O[C@H](CO)[C@@H](O)[C@H](O)[C@H]1O [L-ascorbic Acid 2-Glucoside, L-ascorbic acid 2-glucoside]
  Collagen Production Amount (I-type collagen concentration in supernatant): 4.29 µg/mL
